Experimental data: patent US20110112057A1, “Sequential administration of 20,20,21,21,21-pentafluoro-17-hydroxy-11Beta-[4-(hydroxyacetyl)phenyl]-19-nor-17Alpha-pregna-4,9-dien-3-one and one or more progestogens for the treatment of gynaecological disorders” (BAYER SCHERING PHARIMA AKTIENGESELL SCHAFT, priority 2008, published 2011)

Key:
[1] = test system: women of reproductive age; test: randomised study of sequential treatment cycles with progesterone receptor antagonist followed by a progestogen; format: in vivo
Experimental: Women of reproductive age are treated in a randomised study sequentially in two treatment cycles with 20,20,21,21,21-pentafluoro-17-hydroxy-11β-[4-(hydroxyacetyl)phenyl]-19-nor-17α-pregna-4,9-dien-3-one. For this purpose, 20,20,21,21,21-pentafluoro-17-hydroxy-11β-[4-(hydroxyacetyl)phenyl]-19-nor-17α-pregna-4,9-dien-3-one is administered to the women in each case for 84 days with a daily dose of between about 1 mg and about 50 mg, followed by intake of a progestogen over a period of about 10 to 14 days. This complete treatment cycle is repeated once.

[2] = test system: endometrium of patients with symptomatic uterine leiomyomata; details: after use for 3 months (Williams 2007); cited from earlier work
[3] = test system: healthy, tube-ligated women; test: randomised study on the effect of lonaprisan in healthy, tube-ligated women; format: in vivo
Experimental: 36 healthy, tube-ligated women from 24 to 43 years of age were subjects in a randomised study on the effect of lonaprisan. For this purpose, the women were divided into three groups: 7 women received placebo, 14 women 1 mg of lonaprisan and 15 women 10 mg of lonaprisan over a period of 3 months, once a day.

[4] = 1 mg or 10 mg lonaprisan once a day over 3 months, not observed in placebo group

SMILES: C[C@]12C[C@H](c3ccc(C(=O)CO)cc3)C3=C4CCC(=O)C=C4CC[C@H]3[C@@H]1CC[C@@]2(O)C(F)(F)C(F)(F)F [20,20,21,21,21-pentafluoro-17-hydroxy-11β-[4-(hydroxyacetyl)phenyl]-19-nor-17α-pregna-4,9-dien-3-one]
- bleeding pattern during the treatment phase ([1]; 84 days, daily dose about 1 mg to about 50 mg): amenorrhoea or a greatly reduced bleeding
- bleeding after sequential treatment with the progestogen ([1]; 84 days, daily dose about 1 mg to about 50 mg, followed by a progestogen for about 10 to 14 days, cycle repeated once): menstrual bleeding following administration of the progestogen
- endometrial biopsies: persistent changes in the endometrium ([1]; after completion of each treatment cycle): no persistent changes in the endometrium

SMILES: COC[C@]1(OC)CC[C@H]2[C@@H]3CCC4=CC(=O)CCC4=C3[C@@H](c3ccc(/C=N/O)cc3)C[C@@]21C [asoprisnil]
- endometrial pattern diagnosed [2]: non-physiological secretory effect
- endometrial vessels [2]: thickening of the smooth muscle cell layer surrounding the endometrial vessels

SMILES: CC(=O)c1ccc([C@H]2C[C@@]3(C)[C@@H](CC[C@@]3(O)C(F)(F)C(F)(F)F)[C@@H]3CCC4=CC(=O)CCC4=C32)cc1 [lonaprisan, 11β-(4-acetylphenyl)-20,20,21,21,21-pentafluoro-17-hydroxy-19-nor-17α-pregna-4,9-dien-3-one]
- bleeding pattern [3, 4]: amenorrhoea or a greatly reduced bleeding
- effect on ovulation [3, 4]: inhibition of ovulation
- menstrual bleeding after discontinuation ([3]; after discontinuation of lonaprisan): spontaneous return of menstrual bleeding
- endometrial biopsies: persistent changes in the endometrium ([3]; after the first menstrual bleeding after completion of the treatment phase): no persistent changes in the endometrium
